The results in this text go back to patent US20150056702A1, “METHOD AND KIT FOR CULTURING STEM CELLS” (China Medical University, priority 2013, published 2015).

Type in all cases: cell-based, mouse
The subject of one assay is ES cells. Nature of the assay: Alkaline phosphatase staining of ES cells. Here is the method:
The following steps were conducted in order to culture ES cells: • (1) preparing a stem cell medium: DMEM+15% heat-inactivated FBS+NEAA (0.1 mM)+L-glutamine (2 mM)+β-mercaptoethanol (0.2 mM); • (2) preparing a BP-containing solution: dissolving BP into DMSO to form a BP-containing solution (100 mg/ml), and storing the solution at −20° C.; • (3) adding different amounts of the BP-containing solution in step (2) into the stem cell medium in step (1) to form different BP-containing mediums, wherein the amount of BP were about 5, 10, 20 or 40 μg per milliliter of the stem cell medium respectively (i.e. the experimental group mediums: BP5, BP10, BP20 and BP40); and • (4) using the BP-containing medium of in step (3) to culture a ES cell (retrieved from the embryos in the blastula stage of 129sv/J mice) at 37° C., 5% CO2 and 95% humidity on the feeder cells provided by Example 1.
The following procedure was conducted in proper order to culture the ES cells: • (1) preparing a stem cell medium: • LIF-containing medium (without BP): DMEM+15% heat-inactivated FBS+NEAA (0.1 mM)+L-glutamine (2 mM)+(3-mercaptoethanol (0.2 mM)+LIF (4 ng/ml); and • control medium (without BP): DMEM+15% heat-inactivated FBS+NEAA (0.1 mM)+L-glutamine (2 mM)+β-mercaptoethanol (0.2 mM); • (2) using the medium in step (1) to culture a ES cell (retrieved from embryos in the blastula stage of 129sv/J mice) at 37° C., 5% CO2 and 95% humidity on the feeder cells provided by Example 1.
Alkaline phosphatase is a marker protein of stem cells. The activity measured by staining could be used to determine if BP can effectively maintain the self-renewal and/or pluripotency of stem cells.
An experimental group medium (BP5, BP10, BP20 or BP40), a LIF-containing medium (without BP) and a control group medium (without BP) were used respectively to culture ES cells in a 6-well culture dish with an initial density of 1×10^4 per well for 72 hours. The medium was removed and the cells were washed two times with PBS. Next, PBS was removed, and 1 ml of 80% ethanol was added into each well to perform the fixation at 4° C. for 2 to 24 hours. Next, ethanol was removed, and then the cells were washed one time with distilled water. The distilled water was added again to soak the cells for 2 to 3 minutes, and then be removed. Next, the cells were soaked with a Tris-HCl buffer (100 mM, pH 8.2 to 8.5) at room temperature for 5 minutes, and then, the buffer was removed. Next, a Leukocyte Alkaline Phosphatase kit (Vector) was used to perform the staining for 20 to 30 minutes, and then the Alkaline Phosphatase Substrate working solution was removed, the cells were soaked and washed by Tris-HCl buffer (100 mM, pH 8.2 to 8.5) and then be observed by a fluorescent microscope to count the number of the AP-positive clones. The undifferentiated ES cells with a higher activity show a red color, while the differentiated ES cells with a lower activity show a weak red color or are even colorless.

The test system of another assay is IL5. Nature of the assay: Real-time PCR, cytokine gene IL5 in ES cells. The settings on record: for IL5 mRNA expression level: ES cells, control group = 100%. The procedure: (§1) An experimental group medium (BP5, BP10, BP20 or BP40) and a control group medium (without BP) were added respectively to perform the following steps. ES cells were cultured with an initial density of 1×10^4 per well in a 6-well culture dish. The medium was removed until the cells growth to be about 70 to 80% confluence, and then 1 ml TRIzol (Invitrogen) was added into each well. The cells were incubated for 5 minutes, and then was scraped by a spatula and placed into a 1.5 ml microtube to be lysed adequately. Chloroform (0.2 ml) was added into the microtubes. The mixture was shaken up and down for 15 seconds, and then incubated at room temperature for 2 to 3 minutes. Thereafter, the mixture was centrifuged at 12000 rpm at 4° C. for 15 minutes, and the supernatant was removed into another 1.5 ml microtube and isopropanol (0.5 ml) was added into the microtube with well mixing. The mixture was incubated at room temperature for 10 minutes and then centrifuged at 12000 rpm at 4° C. for 10 minutes. The supernatant was then removed. One ml of 70% ethanol containing DEPC.H2O was used to wash the remaining sediment. The sediment was centrifuged at 7500 rpm at 4° C. for 5 minutes. The supernatant was removed. The sediment was dried by vacuum suction. The dried samples were dissolved in about 0.01 to 0.02 ml of DEPC.H2O to obtain the experimental group RNA and control group RNA. Both groups were stored at −80° C.
(§2) The OD value of RNA samples in both groups obtained from the above Experiment I were measured at a wavelength of 260 nm (RNA: OD260=1 for a 40 μg/mL solution). Each RNA sample (2 μl) was added with RNA-free water until the volume of the sample reached 10 μl. Two μl oligo (dT) (100 μg/ml) was added into each sample, and the samples were incubated at 65° C. for 5 minutes. Then, the samples were immediately placed on ice and spun down. Next, 6.5 μl of a reaction solution [4 μl of 5× buffer+1 μl of 0.1 M DTT+1 μl of RNase out+0.5 μl of SSIII (Invitrogen)] was added into each of the samples, and the samples were incubated at 50° C. for about 30 to 60 minutes and at 75° C. for 15 minutes to obtain the experimental group cDNA and control group cDNA. Both groups were stored at −80° C.
(§3) This experiment was used to detect the expression levels of ES cell-related genes, i.e., Oct4 and Sox2, etc. First, 4 μl of the experimental group cDNA or control group cDNA was added into each well of a 96-well micro-reaction plate, and mixed with 6 μl of a reaction solution [0.5 μl of 6 μM forward primer+0.5 μl of 6 μM reverse primer+5 μl of SYBR Green PCR Master mix (Roche)], wherein the SYBR Green PCR Master mix included the reagents needed for Q-PCR, such as dNTPs, MgCl, Taq DNA polymerase and 2×SYBR® Green I solution. […] The cycle threshold (CT) values were measured. […]
On the technique in general: Quantitative PCR measures a nucleic acid by following its amplification.

The test system of a further assay is OSM. Kind of assay: Real-time PCR, cytokine gene OSM in ES cells. The settings on record: for Osm mRNA expression level: ES cells, control group = 100%. The procedure: as §1, §2, §3
Where [1] appears, read: BP10 medium (about 10 μg BP/ml).
The mark [2] stands for this setting: BP-containing ES cell medium, result in words.
Setting [3] is: LIF-containing medium (LIF 4 ng/ml).

Regarding `CCCC=C1OC(=O)c2ccccc21` [BP, n-butylidenephthalide], the AP-positive clones is reported as 91% in the assay on ES cells (BP5 medium (about 5 μg BP/ml), ES cells, 72 hours, control group = 100%); 116% with ES cells (BP10 medium (about 10 μg BP/ml), ES cells, 72 hours, control group = 100%); 116% in the assay on ES cells (BP20 medium (about 20 μg BP/ml), ES cells, 72 hours, control group = 100%); 117% with ES cells (BP40 medium (about 40 μg BP/ml), ES cells, 72 hours, control group = 100%); “more AP-positive clones” in the assay on ES cells (BP-containing ES cell medium vs control group (without BP), result in words). Also, the results for the “IL5 mRNA expression level” value in the assay with IL5 (BP5 medium (about 5 μg BP/ml)) and in the assay on IL5 (setting [1]) were 65% and 175%, respectively. Besides, the “mRNA expression level of IL-5” value in the assay on IL5 (setting [2]) was “significantly up-regulated”. The “Osm mRNA expression level” value came out at 109% in the assay with OSM (BP5 medium (about 5 μg BP/ml)) and 246% with OSM (setting [1]). Also, the “mRNA expression level of OSM” value with OSM (setting [2]) is listed as “significantly up-regulated”.

“LIF: multifunctional cell factor used to maintain pluripotency of stem cells; LIF-containing medium (4 ng/ml, without BP) as comparison”: the AP-positive clones in the assay with ES cells (LIF-containing medium (LIF 4 ng/ml, without BP), ES cells, 72 hours, control group = 100%) was found to be 110%. For the same molecule, the “IL5 mRNA expression level” value with IL5 (setting [3]) is on record as 35%. Besides, the “Osm mRNA expression level” value in the assay on OSM (setting [3]) is 128%.
